Laboratory results: ChEMBL document CHEMBL1201862, “PubChem BioAssay data set” (2004)
Calls of active or inactive are those of the source.

Columns and labels:
[1] = blockers of bursicon-stimulated LGR2 cAMP reporter – cell-based, HEK293, CRE-luciferase reporter, cherry pick, set 2, dose response (AID 743343); assay type: functional;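 further: transfected cells were stimulated with diluted bursicon conditioned medium after compound addition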
[2] = blockade of melanocortin 4 receptor signaling – cell-based, plate reader, cherry pick, counter-screen for LGR2 antagonist project, dose response (AID 743444); assay type: functional;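 further: transfected HEK 293 cells stimulated with alpha-MSH peptide; potency of inhibitors of the alpha-MSH evoked signal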
cells = assay type: functional, cell-based
[3] = biological target: T1, Nuclear receptor subfamily 0 group B member 1 (Homo sapiens, UniProt P51843); assay type: functional, cell-based;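 further: HEK293T cells transfected with SF-1 and DAX-1 plus StAR promoter luciferase reporter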
T1 sequence (P51843 whole entry): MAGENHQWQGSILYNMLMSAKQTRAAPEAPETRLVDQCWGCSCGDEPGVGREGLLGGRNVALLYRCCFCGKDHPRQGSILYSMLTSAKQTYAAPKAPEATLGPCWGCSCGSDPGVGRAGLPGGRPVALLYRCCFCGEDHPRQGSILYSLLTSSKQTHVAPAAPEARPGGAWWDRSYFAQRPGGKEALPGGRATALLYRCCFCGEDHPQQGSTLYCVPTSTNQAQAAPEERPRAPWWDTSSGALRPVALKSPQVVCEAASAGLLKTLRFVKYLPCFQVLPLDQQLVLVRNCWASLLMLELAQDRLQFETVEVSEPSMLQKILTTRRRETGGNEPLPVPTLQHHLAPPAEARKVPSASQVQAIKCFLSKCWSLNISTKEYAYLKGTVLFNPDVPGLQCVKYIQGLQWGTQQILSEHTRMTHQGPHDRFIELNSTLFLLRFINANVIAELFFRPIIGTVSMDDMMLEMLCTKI

[4] = A549 cell cytotoxicity, dose response, cytotoxicity control, plate reader, cherry-pick, antagonist series (AID 743412); assay type: functional, cell-based
[5] = toxicity toward HepG2 liver cells – cell-based, plate reader, cherry-pick, antagonist series, cytotoxicity control, dose response (AID 743416); assay type: functional
[6] = Counterscreen for inhibitors of Trypanosoma brucei methionyl tRNA synthetase (MetRS): Luminescence-based cell-based high throughput dose response assay to identify compounds that are cytotoxic to Jurkat human T lymphocyte cells.; assay type: functional
[7] = biological target: T2, Methionyl-tRNA synthetase, putative (Trypanosoma brucei brucei, UniProt Q38C91); assay type: functional, Trypanosoma brucei brucei strain 927/4 GUTat10.1
T2 sequence (Q38C91 whole entry): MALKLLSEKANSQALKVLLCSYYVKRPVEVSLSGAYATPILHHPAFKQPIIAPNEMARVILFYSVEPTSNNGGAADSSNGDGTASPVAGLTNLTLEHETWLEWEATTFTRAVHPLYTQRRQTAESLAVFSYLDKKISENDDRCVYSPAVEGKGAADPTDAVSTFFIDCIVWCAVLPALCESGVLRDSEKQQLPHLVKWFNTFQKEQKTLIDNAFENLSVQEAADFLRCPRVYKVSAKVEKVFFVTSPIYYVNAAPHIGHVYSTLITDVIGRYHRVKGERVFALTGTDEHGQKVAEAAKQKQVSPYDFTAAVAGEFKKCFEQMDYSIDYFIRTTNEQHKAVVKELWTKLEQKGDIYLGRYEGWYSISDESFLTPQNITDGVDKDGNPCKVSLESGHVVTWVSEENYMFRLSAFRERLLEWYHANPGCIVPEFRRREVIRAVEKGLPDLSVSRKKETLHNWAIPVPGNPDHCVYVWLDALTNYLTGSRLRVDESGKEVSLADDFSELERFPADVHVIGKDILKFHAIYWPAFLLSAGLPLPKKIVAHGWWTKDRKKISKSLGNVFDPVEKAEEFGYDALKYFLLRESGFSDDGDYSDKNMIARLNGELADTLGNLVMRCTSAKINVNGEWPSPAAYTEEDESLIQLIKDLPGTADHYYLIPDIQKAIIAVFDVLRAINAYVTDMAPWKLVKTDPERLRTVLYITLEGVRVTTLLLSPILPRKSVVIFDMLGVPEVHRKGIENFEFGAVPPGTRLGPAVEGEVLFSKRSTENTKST

[8] = biological target: T2, Methionyl-tRNA synthetase, putative; assay type: functional, Trypanosoma brucei brucei strain 927/4 GUTat10.1; remark: listed apart in the source
[9] = biological target: T3, Corticotropin-releasing factor receptor 2/Corticotropin-releasing factor-binding protein (Homo sapiens, UniProt P24387+Q13324); assay: activators of CRF receptor 2 with binding protein – uHTS hits, confirmation (AID 602473); assay type: functional; conditions: read-out: EC50_Mean
T3 sequence (Q13324 whole entry): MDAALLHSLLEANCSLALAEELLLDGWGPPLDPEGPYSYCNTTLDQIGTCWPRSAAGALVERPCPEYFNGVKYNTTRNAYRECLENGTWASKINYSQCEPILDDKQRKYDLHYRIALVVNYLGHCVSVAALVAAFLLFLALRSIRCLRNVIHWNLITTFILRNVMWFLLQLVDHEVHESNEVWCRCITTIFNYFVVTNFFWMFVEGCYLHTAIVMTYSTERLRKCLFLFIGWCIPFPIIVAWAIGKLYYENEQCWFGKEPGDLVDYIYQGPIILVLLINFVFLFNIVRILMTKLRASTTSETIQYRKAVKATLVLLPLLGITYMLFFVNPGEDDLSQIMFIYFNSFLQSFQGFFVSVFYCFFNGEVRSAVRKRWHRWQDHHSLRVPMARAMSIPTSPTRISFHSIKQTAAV
T3 sequence (P24387 whole entry): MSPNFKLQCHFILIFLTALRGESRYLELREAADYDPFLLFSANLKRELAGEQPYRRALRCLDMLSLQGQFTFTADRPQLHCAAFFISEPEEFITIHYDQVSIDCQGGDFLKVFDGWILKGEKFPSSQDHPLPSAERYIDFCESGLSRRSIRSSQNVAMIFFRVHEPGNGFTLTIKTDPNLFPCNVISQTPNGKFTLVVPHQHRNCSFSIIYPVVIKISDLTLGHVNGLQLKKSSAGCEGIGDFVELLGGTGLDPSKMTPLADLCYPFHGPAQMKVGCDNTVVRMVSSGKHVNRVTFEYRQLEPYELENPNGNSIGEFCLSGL

[10] = biological target: T3, Corticotropin-releasing factor receptor 2/Corticotropin-releasing factor-binding protein; assay: Dose Response confirmation of uHTS hits for small molecule antagonists of the CRF-binding protein and CRF-R2 receptor complex.; assay type: functional; conditions: read-out: IC50_Mean
[11] = blockers of CRF-binding protein–CRF-R2 complex – cell-based, uHTS hits, 384-well, dose response (AID 651639); assay type: functional, Homo sapiens; conditions: read-out: IC50_Mean

SMILES: CN(C)c1ccc(NC(=O)c2cnsn2)cc1
- AC50 [1]: 4.26 µM (active)
- AC50 [2]: 6.9 µM (active)
- IC50 (cells): > 67.5 µM (inactive)
- IC50 [3]: > 2.5 µM (active)
- AC50 [4]: > 52 µM (inactive)
- AC50 [5]: > 52 µM (inactive)

SMILES: COc1cc2ccccc2cc1C(=O)Nc1cc(C)ccn1
- IC50 (cells): > 67.6 µM (inactive)
- IC50 [3]: > 67.6 µM (inactive)

SMILES: Cc1ccc(CNC(=O)CSc2n[nH]c3c4ccccc4nc-3n2)cc1
- IC50 [6]: 83.3 µM (inactive)
- IC50 [7]: 119 µM (inactive)
- IC50 [8]: 3.38 µM (active)

SMILES: CC1CC(C)CN(C(=O)CSc2nc(Cc3cccs3)nc3ccccc23)C1 (centres undefined)
- EC50 [9]: > 53 µM (inactive)
- IC50 [10]: 6.34 µM (active)
- IC50 [11]: 5.99 µM (active)
